Measured values as given in ChEMBL document CHEMBL3867433, “Synthesis and antimicrobial activity of styryl/pyrrolyl/pyrazolyl sulfonylmethyl-1,3,4-oxadiazolyl amines and styryl/pyrrolyl/pyrazolyl sulfonylmethyl-1,3,4-thiadiazolyl amines” (2016).
≈ marks a conversion by molar mass, not a printed value.

Columns and labels:
Assay type in all cases: functional
Staphylococcus aureus [1] = assay: Antibacterial activity against Staphylococcus aureus at 12.5 ug/well after 24 hrs by agar well diffusion method; details: read-out: DIZ
Staphylococcus aureus [2] = assay: Antibacterial activity against Staphylococcus aureus at 25 ug/well after 24 hrs by agar well diffusion method; details: read-out: DIZ
Staphylococcus aureus [3] = assay: Antibacterial activity against Staphylococcus aureus at 50 ug/well after 24 hrs by agar well diffusion method; details: read-out: DIZ
Staphylococcus aureus [4] = assay: Antibacterial activity against Staphylococcus aureus at 100 ug/well after 24 hrs by agar well diffusion method; details: read-out: DIZ
Bacillus subtilis [5] = assay: Antibacterial activity against Bacillus subtilis at 12.5 ug/well after 24 hrs by agar well diffusion method; details: read-out: DIZ
Bacillus subtilis [6] = assay: Antibacterial activity against Bacillus subtilis at 25 ug/well after 24 hrs by agar well diffusion method; details: read-out: DIZ
Bacillus subtilis [7] = assay: Antibacterial activity against Bacillus subtilis at 50 ug/well after 24 hrs by agar well diffusion method; details: read-out: DIZ
Bacillus subtilis [8] = assay: Antibacterial activity against Bacillus subtilis at 100 ug/well after 24 hrs by agar well diffusion method; details: read-out: DIZ
Pseudomonas aeruginosa [9] = assay: Antibacterial activity against Pseudomonas aeruginosa at 12.5 ug/well after 24 hrs by agar well diffusion method; details: read-out: DIZ
Pseudomonas aeruginosa [10] = assay: Antibacterial activity against Pseudomonas aeruginosa at 25 ug/well after 24 hrs by agar well diffusion method; details: read-out: DIZ
Pseudomonas aeruginosa [11] = assay: Antibacterial activity against Pseudomonas aeruginosa at 50 ug/well after 24 hrs by agar well diffusion method; details: read-out: DIZ
Pseudomonas aeruginosa [12] = assay: Antibacterial activity against Pseudomonas aeruginosa at 100 ug/well after 24 hrs by agar well diffusion method; details: read-out: DIZ
Klebsiella pneumoniae [13] = assay: Antibacterial activity against Klebsiella pneumoniae at 12.5 ug/well after 24 hrs by agar well diffusion method; details: read-out: DIZ
Klebsiella pneumoniae [14] = assay: Antibacterial activity against Klebsiella pneumoniae at 25 ug/well after 24 hrs by agar well diffusion method; details: read-out: DIZ
Klebsiella pneumoniae [15] = assay: Antibacterial activity against Klebsiella pneumoniae at 50 ug/well after 24 hrs by agar well diffusion method; details: read-out: DIZ
Klebsiella pneumoniae [16] = assay: Antibacterial activity against Klebsiella pneumoniae at 100 ug/well after 24 hrs by agar well diffusion method; details: read-out: DIZ
Aspergillus niger [17] = assay: Antifungal activity against Aspergillus niger assessed as inhibition of spore germination at 12.5 ug/well after 48 hrs by agar well diffusion method; details: read-out: DIZ
Aspergillus niger [18] = assay: Antifungal activity against Aspergillus niger assessed as inhibition of spore germination at 25 ug/well after 48 hrs by agar well diffusion method; details: read-out: DIZ
Aspergillus niger [19] = assay: Antifungal activity against Aspergillus niger assessed as inhibition of spore germination at 50 ug/well after 48 hrs by agar well diffusion method; details: read-out: DIZ
Aspergillus niger [20] = assay: Antifungal activity against Aspergillus niger assessed as inhibition of spore germination at 100 ug/well after 48 hrs by agar well diffusion method; details: read-out: DIZ
[21] = Antifungal activity against Penicillium chrysogenum assessed as inhibition of spore germination at 12.5 ug/well after 48 hrs by agar well diffusion method
[22] = Antifungal activity against Penicillium chrysogenum assessed as inhibition of spore germination at 25 ug/well after 48 hrs by agar well diffusion method
[23] = Antifungal activity against Penicillium chrysogenum assessed as inhibition of spore germination at 50 ug/well after 48 hrs by agar well diffusion method
[24] = Antifungal activity against Penicillium chrysogenum assessed as inhibition of spore germination at 100 ug/well after 48 hrs by agar well diffusion method
Penicillium chrysogenum [25] = assay: Ratio of MFC to MIC for Penicillium chrysogenum
Pseudomonas aeruginosa [26] = assay: Ratio of MBC to MIC for Pseudomonas aeruginosa
Staphylococcus aureus [27] = assay: Antibacterial activity against Staphylococcus aureus after 24 hrs by broth dilution method
Bacillus subtilis [28] = assay: Antibacterial activity against Bacillus subtilis after 24 hrs by broth dilution method
Pseudomonas aeruginosa [29] = assay: Antibacterial activity against Pseudomonas aeruginosa after 24 hrs by broth dilution method
Klebsiella pneumoniae [30] = assay: Antibacterial activity against Klebsiella pneumoniae after 24 hrs by broth dilution method
Aspergillus niger [31] = assay: Antifungal activity against Aspergillus niger assessed as inhibition of spore germination after 48 hrs by broth dilution method
[32] = Antifungal activity against Penicillium chrysogenum assessed as inhibition of spore germination after 48 hrs by broth dilution method
Staphylococcus aureus [33] = assay: Bactericidal activity against Staphylococcus aureus after 24 hrs
Bacillus subtilis [34] = assay: Bactericidal activity against Bacillus subtilis after 24 hrs
Pseudomonas aeruginosa [35] = assay: Bactericidal activity against Pseudomonas aeruginosa after 24 hrs
Klebsiella pneumoniae [36] = assay: Bactericidal activity against Klebsiella pneumoniae after 24 hrs
Aspergillus niger [37] = assay: Fungicidal activity against Aspergillus niger assessed as inhibition of spore germination after 48 hrs
Penicillium chrysogenum [38] = assay: Fungicidal activity against Penicillium chrysogenum assessed as inhibition of spore germination after 48 hrs

| Structure (SMILES) | zone of inhibition at 12.5 µg/disc (Staphylococcus aureus [1]) | zone of inhibition at 25 µg/disc (Staphylococcus aureus [2]) | zone of inhibition at 50 µg/disc (Staphylococcus aureus [3]) | zone of inhibition at 100 µg/disc (Staphylococcus aureus [4]) | zone of inhibition at 12.5 µg/disc (Bacillus subtilis [5]) | zone of inhibition at 25 µg/disc (Bacillus subtilis [6]) | zone of inhibition at 50 µg/disc (Bacillus subtilis [7]) | zone of inhibition at 100 µg/disc (Bacillus subtilis [8]) | zone of inhibition at 12.5 µg/disc (Pseudomonas aeruginosa [9]) | zone of inhibition at 25 µg/disc (Pseudomonas aeruginosa [10]) | zone of inhibition at 50 µg/disc (Pseudomonas aeruginosa [11]) | zone of inhibition at 100 µg/disc (Pseudomonas aeruginosa [12]) | zone of inhibition at 12.5 µg/disc (Klebsiella pneumoniae [13]) | zone of inhibition at 25 µg/disc (Klebsiella pneumoniae [14]) | zone of inhibition at 50 µg/disc (Klebsiella pneumoniae [15]) | zone of inhibition at 100 µg/disc (Klebsiella pneumoniae [16]) | zone of inhibition at 12.5 µg/disc (Aspergillus niger [17]) | zone of inhibition at 25 µg/disc (Aspergillus niger [18]) | zone of inhibition at 50 µg/disc (Aspergillus niger [19]) | zone of inhibition at 100 µg/disc (Aspergillus niger [20]) | other results |
| --- | --- | --- | --- | --- | --- | --- | --- | --- | --- | --- | --- | --- | --- | --- | --- | --- | --- | --- | --- | --- | --- |
| Nc1nnc(CS(=O)(=O)c2c[nH]cc2-c2ccc(Cl)cc2)s1 | 17 mm | 19 mm | 21 mm | 23 mm | 21 mm | 22 mm | 23 mm | 25 mm | 20 mm | 22 mm | 24 mm | 26 mm | 28 mm | 30 mm | 32 mm | 34 mm | 15 mm | 17 mm | 19 mm | 21 mm | inhibition zone (IZ) [21]: 29 mm; inhibition zone (IZ) [22]: 32 mm; inhibition zone (IZ) [23]: 34 mm; inhibition zone (IZ) [24]: 37 mm; Ratio (Penicillium chrysogenum [25]): >2; Ratio (Pseudomonas aeruginosa [26]): >2; MIC (Staphylococcus aureus [27]): 50 µg/mL (≈ 141 µM); MIC (Bacillus subtilis [28]): 50 µg/mL (≈ 141 µM); MIC (Pseudomonas aeruginosa [29]): 25 µg/mL (≈ 70.5 µM); MIC (Klebsiella pneumoniae [30]): 25 µg/mL (≈ 70.5 µM); MIC (Aspergillus niger [31]): 25 µg/mL (≈ 70.5 µM); MIC [32]: 50 µg/mL (≈ 141 µM); MBC (Staphylococcus aureus [33]): > 200 µg/mL; MBC (Bacillus subtilis [34]): > 200 µg/mL; MBC (Pseudomonas aeruginosa [35]): 100 µg/mL (≈ 282 µM); MBC (Klebsiella pneumoniae [36]): > 100 µg/mL; MFC (Aspergillus niger [37]): 100 µg/mL (≈ 282 µM); MFC (Penicillium chrysogenum [38]): > 200 µg/mL |
| Nc1nnc(CS(=O)(=O)/C=C\c2ccc(Cl)cc2)s1 | 22 mm | 23 mm | 24 mm | 26 mm | 28 mm | 29 mm | 30 mm | 32 mm | 24 mm | 26 mm | 28 mm | 34 mm | 32 mm | 34 mm | 36 mm | 38 mm | 27 mm | 29 mm | 31 mm | 32 mm | inhibition zone (IZ) [21]: 34 mm; inhibition zone (IZ) [22]: 35 mm; inhibition zone (IZ) [23]: 37 mm; inhibition zone (IZ) [24]: 41 mm; Ratio (Penicillium chrysogenum [25]): 2; Ratio (Pseudomonas aeruginosa [26]): 2; MIC (Staphylococcus aureus [27]): 25 µg/mL (≈ 79.2 µM); MIC (Bacillus subtilis [28]): 25 µg/mL (≈ 79.2 µM); MIC (Pseudomonas aeruginosa [29]): 6.25 µg/mL (≈ 19.8 µM); MIC (Klebsiella pneumoniae [30]): 12.5 µg/mL (≈ 39.6 µM); MIC (Aspergillus niger [31]): 12.5 µg/mL (≈ 39.6 µM); MIC [32]: 12.5 µg/mL (≈ 39.6 µM); MBC (Staphylococcus aureus [33]): > 100 µg/mL; MBC (Bacillus subtilis [34]): 100 µg/mL (≈ 317 µM); MBC (Pseudomonas aeruginosa [35]): 12.5 µg/mL (≈ 39.6 µM); MBC (Klebsiella pneumoniae [36]): 50 µg/mL (≈ 158 µM); MFC (Aspergillus niger [37]): 50 µg/mL (≈ 158 µM); MFC (Penicillium chrysogenum [38]): 25 µg/mL (≈ 79.2 µM) |
